{"source": "patent US7964634B2", "about": "“Therapeutic compounds” (Allergan, Inc., priority 2008, dated 2011)", "test_system": "lashes and adjacent hairs of the eyelids", "assay": "Observation of eyelash and hair growth in glaucoma patients treated in one eye", "format": "in vivo", "description": "In the course of treating patients having glaucoma, treatment may only be appropriate in one eye. […] The lash appearance on the lids of the treated eyes would have appeared quite attractive if it represented a bilateral phenomenon. As a result of its asymmetric nature, the long lashes on one side could be construed as disturbing from a cosmetic standpoint. A systemic examination was preformed as a result of the asymmetric phenomenon. It soon became apparent that this altered appearance was not an isolated finding.\nThe changes in the lashes were apparent on gross inspection in several patients once attention was focused on the issue. In those with light colored hair and lashes, the differences were only seen easily with the aid of the high magnification and lighting capabilities of the slit lamp biomicroscope. In the course of glaucoma follow-up examination, attention is generally immediately focused on the eye itself. As a result of the high power magnification needed only one eye is seen at a time and the eye is seen at a high enough power that the lashes are not in focus. At these higher powers, any lash asymmetry between the two eyes is not likely to be noticed except by careful systematic comparison of the lashes and adjacent hairs of the eyelids of the two eyes. […]", "data": [{"smiles": "CCNC(=O)CCC/C=C\\C[C@@H]1[C@@H](/C=C/[C@@H](O)CCc2ccccc2)[C@H](O)C[C@@H]1O", "note": "[bimatoprost]", "values": [{"measurement": "differences in lashes and adjacent hairs of the treated side", "setting": "all patients taking the drug on a unilateral basis for longer than 6 months", "result": "Definite differences could be identified to varying degrees"}, {"measurement": "lash appearance in treated eye versus non-treated eye", "setting": "glaucoma patient treated in one eye only", "result": "longer, thicker, and fuller in the treated eye than in the non-treated eye"}]}]}
